Structures can show the parent of a compound that is named as a salt.

Our source for the IC50 values is patent publication US9216991B2 (Ares Trading S.A., priority 2012, dated 2015).

The assay has as its target T1, IRAK4 (Homo sapiens, UniProt Q9NWZ3).
T1 construct: His (N); TEV cleavage site (N)
T1 sequence (Q9NWZ3 1-460): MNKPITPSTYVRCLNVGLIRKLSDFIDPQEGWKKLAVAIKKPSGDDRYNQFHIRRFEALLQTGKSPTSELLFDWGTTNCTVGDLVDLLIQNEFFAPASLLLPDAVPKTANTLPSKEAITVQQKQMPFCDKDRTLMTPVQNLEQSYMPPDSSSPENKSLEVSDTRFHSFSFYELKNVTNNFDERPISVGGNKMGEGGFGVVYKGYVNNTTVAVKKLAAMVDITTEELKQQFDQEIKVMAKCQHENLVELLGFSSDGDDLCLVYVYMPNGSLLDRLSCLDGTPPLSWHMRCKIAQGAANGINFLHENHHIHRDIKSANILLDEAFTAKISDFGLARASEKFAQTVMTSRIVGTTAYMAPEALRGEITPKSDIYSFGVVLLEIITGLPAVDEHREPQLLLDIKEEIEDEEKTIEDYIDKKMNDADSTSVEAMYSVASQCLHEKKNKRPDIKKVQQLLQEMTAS
Briefly: IRAK4 Enzymatic Assay. It counts as biochemical. The following applies: His-TEV-IRAK4 20 ng/well, ATP 2 μM, STK1-biotin peptide 300 nM, 3 hours at 30° C., FlashPlate radioactivity. As for the experimental part: IRAK4 is a human purified recombinant enzyme (His-TEV-IRAK1 (194-712)
IRAK4 hydrolyses ATP, autophosphorylates and phosphorylates a Serine/Threonine generic peptidic substrate (STK: 61ST1BLC from CisBio International based in Bagnols/Cèze FR).
Measurement of IRAK-4 inhibition is performed in streptavidin coated 384 well FlashPlate (PerkinElmer #SMP410A). His-TEV-IRAK4 (20 ng/well), ATP (2 μM, [^33P]ATP 0.25 μCi/well), STK1-biotin peptide (300 nM) and compounds in DMSO (range of concentrations from 20 μM to 1nM) or controls (2% DMSO) are incubated for 3 hours at 30° C. in assay buffer: Hepes pH7.0 50 mM, Fatty acid-free BSA 0.1%, Dithiothreitol DTT 2 mM, MgCl2 10 mM, EGTA 0.5 mM, Tween-20 0.01%, MnCl2 5 mM.
Kinase reaction is stopped by addition of EDTA. Supernatant is discarded, plates are washed three times with 150 mM NaCl and radioactivity is then measured in a Microbeta Trilux reader.
With `CN(C)C(=O)C1CCC(n2cc(-c3cnc(-c4cccc(-c5cnn(C)c5)c4)nc3)cn2)CC1` (mixture of isomers) [Example 121, 4-(4-{2-[3-(1-Methyl-1H-pyrazol-4-yl)-phenyl]-pyrimidin-5-yl}-pyrazol-1-yl)-cyclohexanecarboxylic acid dimethylamide], the IC50 is below 100 nM.

For the molecule `CN(C)C(=O)C1CC2COCC(C1)C2n1cc(-c2cnc(-c3cccc(-c4cnn(C)c4)c3)nc2)cn1` (mixture of isomers) [Example 273, trans,cis-9-(4-{2-[3-(1-Methyl-1H-pyrazol-4-yl)-phenyl]-pyrimidin-5-yl}-pyrazol-1-yl)-3-oxa-bicyclo[3.3.1]nonane-7-carboxylic acid dimethylamide], the IC50 lay in the range of 100 to 1000 nM.

On to `Cn1cc(-c2cccc(-c3ncc(-c4cnn([C@@H]5CCC[S@@+]([O-])C5)c4)cn3)c2)cn1` (racemic) [Example 235, 2-[3-(1-Methyl-1H-pyrazol-4-yl)-phenyl]-5-[1-(Trans-1-oxo-tetrahydro-thiopyran-3-yl)-1H-pyrazol-4-yl]-pyrimidine], for which the IC50 fell in the range of 100 to 1000 nM.

As to `Cn1cc(-c2cccc(-c3ncc(-c4cnn([C@H]5CCC[S@@+]([O-])C5)c4)cn3)c2)cn1` (racemic) [Example 236, 2-[3-(1-Methyl-1H-pyrazol-4-yl)-phenyl]-5-[1-(Cis-1-oxo-tetrahydro-thiopyran-3-yl)-1H-pyrazol-4-yl]-pyrimidine], the IC50 was below 100 nM.

For the molecule `CNC(=O)[C@H]1CCC[C@@H](n2cc(-c3cnc(-c4cccc(-c5cnn(C)c5)c4)nc3)cn2)C1` (relative stereo) [Example 180, cis-3-(4-{2-[3-(1-Methyl-1H-pyrazol-4-yl)-phenyl]-pyrimidin-5-yl}-pyrazol-1-yl)-cyclohexanecarboxylic acid methylamide], the IC50 was 100 to 1000 nM.

Take `CNC(=O)[C@H]1CCC[C@H](n2cc(-c3cnc(-c4cccc(-c5cnn(C)c5)c4)nc3)cn2)C1` (relative stereo) [Example 181, trans-3-(4-{2-[3-(1-Methyl-1H-pyrazol-4-yl)-phenyl]-pyrimidin-5-yl}-pyrazol-1-yl)-cyclohexanecarboxylic acid methylamide]: the IC50 lay within 100 to 1000 nM.

For the molecule `CO[C@H]1CN(C(=O)[C@H]2CC[C@H](n3cc(-c4cnc(-c5cccc(-c6cnn(C)c6)c5)nc4)cn3)CC2)C[C@@H]1O` (relative stereo) [Example 245, (Trans-3-Hydroxy-4-methoxy-pyrrolidin-1-yl)-[4-Trans-(4-{2-[3-(1-methyl-1H-pyrazol-4-yl)-phenyl]-pyrimidin-5-yl}-pyrazol-1-yl)-cyclohexyl]-methanone], the IC50 is below 100 nM.

Take `Cn1cc(-c2cccc(-c3ncc(-c4cnn([C@H]5CCC[C@@H](N6CCOC6=O)C5)c4)cn3)c2)cn1` (relative stereo) [Example 257, 3-[cis-3-(4-{2-[3-(1-Methyl-1H-pyrazol-4-yl)-phenyl]-pyrimidin-5-yl}-pyrazol-1-yl)-cyclohexyl]-oxazolidin-2-one]: the IC50 was below 100 nM.

As to `Cn1cc(-c2cccc(-c3ncc(-c4cnn([C@@H]5CCNC[C@@H]5F)c4)cn3)c2)cn1` (relative stereo) [Example 265], the 50% inhibitory concentration (IC50) is 100 to 1000 nM.

Regarding `CC(=O)N1CC[C@@H](n2cc(-c3cnc(-c4cccc(-c5cnn(C)c5)c4)nc3)cn2)[C@H](O)C1` (single isomer, unassigned) [Example 201], the IC50 fell in the range of 100 to 1000 nM.

For `CC(=O)N1CC[C@H](n2cc(-c3cnc(-c4cccc(-c5cnn(C)c5)c4)nc3)cn2)[C@@H](O)C1` (single isomer, unassigned) [Example 202], the IC50 was 100 to 1000 nM.

As to `CC(=O)N1CC[C@@H](n2cc(-c3cnc(-c4cccc(-c5cnn(C)c5)c4)nc3)cn2)[C@H](O)C1` (single isomer, unassigned) [Example 226], the concentration for half-maximal inhibition (IC50) is 100 to 1000 nM.

As for `Cc1cc(-c2cccc(-c3ncc(-c4cnn([C@H]5CCCS(=O)(=O)C5)c4)cn3)c2)cnn1` (single isomer, unassigned) [Example 240], the concentration for half-maximal inhibition (IC50) lay within 100 to 1000 nM.

Turning to `Cc1cc(-c2cccc(-c3ncc(-c4cnn([C@@H]5CCCS(=O)(=O)C5)c4)cn3)c2)cnn1` (single isomer, unassigned) [Example 241], the half-inhibitory concentration (IC50) lay in the range of 100 to 1000 nM.

For `Cn1cc(-c2cccc(-c3ncc(-c4cnn(C5CCC6(CCC(=O)N6)CC5)c4)cn3)c2)cn1` (single isomer, unassigned) [Example 251, Trans-8-(4-{2-[3-(1-Methyl-1H-pyrazol-4-yl)-phenyl]-pyrimidin-5-yl}-pyrazol-1-yl)-1-aza-spiro[4.5]decan-2-one], the IC50 lay in the range of 100 to 1000 nM.

Regarding `Cn1cc(-c2cccc(-c3ncc(-c4cnn(C5CCC[C@H](S(C)(=O)=O)C5)c4)cn3)c2)cn1` (single isomer, unassigned) [Example 279, 5-[1-(Cis-3-Methanesulfonyl-cyclohexyl)-1H-pyrazol-4-yl]-2-[3-(1-methyl-1H-pyrazol-4-yl)-phenyl]-pyrimidine], the IC50 is below 100 nM.

With `Cn1cc(-c2cccc(-c3ncc(-c4cnn(C5CCC[C@@H](S(C)(=O)=O)C5)c4)cn3)c2)cn1` (single isomer, unassigned) [Example 282, 5-[1-(trans-3-Methanesulfonyl-cyclohexyl)-1H-pyrazol-4-yl]-2-[3-(1-methyl-1H-pyrazol-4-yl)-phenyl]-pyrimidine], the IC50 lay in the range of 100 to 1000 nM.

Take `CN1C[C@H]2CC1CN2C(=O)Cn1cc(-c2cnc(-c3cccc(-c4cnn(C)c4)c3)nc2)cn1` (stereo in doubt) [Example 148, 1-((1R,4R)-5-Methyl-2,5-diaza-bicyclo[2.2.1]hept-2-yl)-2-(4-{2-[3-(1-methyl-1H-pyrazol-4-yl)-phenyl]-pyrimidin-5-yl}-pyrazol-1-yl)-ethanone]: the IC50 lay within 1000 to 5000 nM.

As to `Cn1cc(-c2cccc(-c3ncc(-c4cnn(C5CCCN(S(C)(=O)=O)C5)c4)cn3)c2)cn1` (stereo in doubt) [Example 272, 5-[(R)-1-(1-Methanesulfonyl-piperidin-3-yl)-1H-pyrazol-4-yl]-2-[3-(1-methyl-1H-pyrazol-4-yl)-phenyl]-pyrimidine], the 50% inhibitory concentration (IC50) is below 100 nM.

Turning to `CC(=O)N1CCCC(n2cc(-c3cnc(-c4cccc(-c5cnn(C)c5)c4)nc3)cn2)C1` (stereo in doubt) [Example 274, 1-[3-((R)-4-{2-[3-(1-Methyl-1H-pyrazol-4-yl)-phenyl]-pyrimidin-5-yl}-pyrazol-1-yl)-piperidin-1-yl]-ethanone], the half-maximal inhibitory concentration (IC50) was below 100 nM.

Regarding `Cn1cc(-c2cccc(-c3ncc(-c4cnn(C5CCNCC5)c4)cn3)c2)cn1` [Example 1, 2-[3-(1-Methyl-1H-pyrazol-4-yl)-phenyl]-5-(1-piperidin-4-yl-1H-pyrazol-4-yl)-pyrimidine hydrochloride], the half-maximal inhibitory concentration (IC50) lay in the range of 100 to 1000 nM.

`c1cncc(-c2cccc(-c3ncc(-c4cnn(C5CCNCC5)c4)cn3)c2)c1` [Example 2, 5-(1-(piperidin-4-yl)-1H-pyrazol-4-yl)-2-(3-(pyridin-3-yl)phenyl)pyrimidine hydrochloride]: the concentration for half-maximal inhibition (IC50) was in the range of 100 to 1000 nM.

As for `Cn1cc(-c2cccc(-c3ncc(-c4cn[nH]c4)cn3)c2)cn1` [Example 3, 2-[3-(1-methyl-1H-pyrazol-4-yl)phenyl]-5-(1H-pyrazol-4-yl)pyrimidine], the IC50 fell in the range of 100 to 1000 nM.

Consider `Cn1cc(-c2cccc(-c3ncc(-c4cnn(C5CCN(C(=O)C(F)(F)F)CC5)c4)cn3)c2)cn1` [Example 4, 2,2,2-Trifluoro-1-[4-(4-{2-[3-(1-methyl-1H-pyrazol-4-yl)-phenyl]-pyrimidin-5-yl}-pyrazol-1-yl)-piperidin-1-yl]-ethanone], for which the IC50 was 100 to 1000 nM.

Turning to `CC(=O)N1CCC(n2cc(-c3cnc(-c4cccc(-c5cnn(C)c5)c4)nc3)cn2)CC1` [Example 5, 1-[4-(4-{2-[3-(1-Methyl-1H-pyrazol-4-yl)-phenyl]-pyrimidin-5-yl}-pyrazol-1-yl)-piperidin-1-yl]-ethanone], the concentration for half-maximal inhibition (IC50) was below 100 nM.

On to `CN1CCC(n2cc(-c3cnc(-c4cccc(-c5cnn(C)c5)c4)nc3)cn2)CC1` [Example 6, 5-[1-(1-Methyl-piperidin-4-yl)-1H-pyrazol-4-yl]-2-[3-(1-methyl-1H-pyrazol-4-yl)-phenyl]-pyrimidine], for which the IC50 lay in the range of 100 to 1000 nM.

Turning to `c1cc(-c2ccoc2)cc(-c2ncc(-c3cnn(C4CCNCC4)c3)cn2)c1` [Example 7, 2-(3-Furan-3-yl-phenyl)-5-(1-piperidin-4-yl-1H-pyrazol-4-yl)-pyrimidine Hydrochloride], the IC50 is 100 to 1000 nM.

Consider `Cn1cc(-c2cccc(-c3ncc(-c4cnn(CC(=O)O)c4)cn3)c2)cn1` [Example 8], for which the IC50 is 1000 to 5000 nM.
